Laboratory results published in patent US6911444B2, “Non-steroidal IL-5 inhibitors, processes and intermediates for their preparation and pharmaceutical compositions comprising said inhibitors” (Janssen Pharmaceutics N.V., priority 1999, dated 2005).

SMILES	melting point [°C]
CC(C)(c1nc(-c2ccccc2)c(C(=O)OC2CCCC(OC(=O)c3sc(C(C)(C)c4c(Cl)cc(-n5ncc(=O)[nH]c5=O)cc4Cl)nc3-c3ccccc3)C2)s1)c1c(Cl)cc(-n2ncc(=O)[nH]c2=O)cc1Cl (centres unmarked) [Compound 139]	180
CC(C)(c1nc(-c2ccccc2)c(C(=O)OCCN2CCN(S(=O)(=O)N3CCCC3)CC2)s1)c1c(Cl)cc(-n2ncc(=O)[nH]c2=O)cc1Cl [Compound 146]	196
CC(C)(c1nc(-c2ccccc2)c(C(=O)OCCNS(=O)(=O)N2CCCCC2)s1)c1c(Cl)cc(-n2ncc(=O)[nH]c2=O)cc1Cl [Compound 77]	126
CN(C)S(=O)(=O)N1CCN(CCOC(=O)c2sc(C(C)(C)c3c(Cl)cc(-n4ncc(=O)[nH]c4=O)cc3Cl)nc2-c2ccccc2)CC1 [Compound 84]	220
Cc1oc(=O)oc1CSC(=O)c1sc(C(C)(C)c2c(Cl)cc(-n3ncc(=O)[nH]c3=O)cc2Cl)nc1-c1ccccc1 [Compound 71]	97
COCCOC(=O)OC(C)OC(=O)c1sc(C(C)(C)c2c(Cl)cc(-n3ncc(=O)[nH]c3=O)cc2Cl)nc1-c1ccccc1 (centres unmarked) [Compound 99]	88
CC1(C)OCC(COC(=O)c2sc(C(C)(C)c3c(Cl)cc(-n4ncc(=O)[nH]c4=O)cc3Cl)nc2-c2ccccc2)O1 (centres unmarked) [Compound 92]	163
CCCCCCCCCCCCCCCOC(=O)Cc1sc(C(C)(C)c2c(Cl)cc(-n3ncc(=O)[nH]c3=O)cc2Cl)nc1-c1ccccc1 [Compound 2]	80
CC(C)(c1nc(-c2cccs2)c(CC(=O)OC2CCOC2=O)s1)c1c(Cl)cc(-n2ncc(=O)[nH]c2=O)cc1Cl (centres unmarked) [Compound 5]	110
CC(C)(c1nc(-c2ccccc2)c(C(=O)OCC2COC(=S)O2)s1)c1c(Cl)cc(-n2ncc(=O)[nH]c2=O)cc1Cl (centres unmarked) [Compound 111]	130
CC(C)(c1nc(-c2ccccc2)c(C(=O)OCCN2CCN(S(N)(=O)=O)CC2)s1)c1c(Cl)cc(-n2ncc(=O)[nH]c2=O)cc1Cl [Compound 79]	133
CC(C)(c1nc(-c2ccccc2)c(C(=O)OCOC(=O)C2CCCCC2)s1)c1c(Cl)cc(-n2ncc(=O)[nH]c2=O)cc1Cl [Compound 125]	130
CN1CCN(CCOC(=O)c2sc(C(C)(C)c3c(Cl)cc(-n4ncc(=O)[nH]c4=O)cc3Cl)nc2-c2ccccc2)S1(=O)=O [Compound 128]	112
CC(C)(c1nc(-c2ccccc2)c(C(=O)SC2CCOC2=O)s1)c1c(Cl)cc(-n2ncc(=O)[nH]c2=O)cc1Cl (centres unmarked) [Compound 4]	212
CC(OC(=O)c1sc(C(C)(C)c2c(Cl)cc(-n3ncc(=O)[nH]c3=O)cc2Cl)nc1-c1ccccc1)OC(=O)C(c1ccccc1)C1CCCC1 (centres unmarked) [Compound 141]	110
CC(C)(c1nc(-c2ccccc2)c(C(=O)OC2CCOC2=O)s1)c1c(Cl)cc(-n2ncc(=O)[nH]c2=O)cc1Cl (centres unmarked) [Compound 3]	208
CN(C)S(=O)(=O)N1CCN(CCO)CC1 [Compound 83]	186
CCOC(=O)C(Cl)(Cl)c1ccccc1-c1nc(C(C)(C)c2c(Cl)cc(-n3ncc(=O)[nH]c3=O)cc2Cl)no1 [Compound 6]	157
CC(OC(=O)OCCS(C)(=O)=O)OC(=O)c1sc(C(C)(C)c2c(Cl)cc(-n3ncc(=O)[nH]c3=O)cc2Cl)nc1-c1ccccc1 (centres unmarked) [Compound 110]	104
CC(C)(c1nc(-c2ccccc2)c(C(=O)OC2CCCC(O)C2)s1)c1c(Cl)cc(-n2ncc(=O)[nH]c2=O)cc1Cl (centres unmarked) [Compound 140]	175
CC(C)(c1nc(-c2ccccc2)c(C(=O)OC2COC(=O)C2O)s1)c1c(Cl)cc(-n2ncc(=O)[nH]c2=O)cc1Cl (centres unmarked) [Compound 131]	144

Continued, values first:

melting point [°C]	SMILES
150	CN(C)S(=O)(=O)NCCOC(=O)c1sc(C(C)(C)c2c(Cl)cc(-n3ncc(=O)[nH]c3=O)cc2Cl)nc1-c1ccccc1 [Compound 76]
180	C#CCOC(=O)c1sc(C(C)(C)c2c(Cl)cc(-n3ncc(=O)[nH]c3=O)cc2Cl)nc1-c1ccccc1 [Compound 88]
88	CCOP(=O)(COC(=O)c1sc(C(C)(C)c2c(Cl)cc(-n3ncc(=O)[nH]c3=O)cc2Cl)nc1-c1ccccc1)OCC
100	CC(C)(c1nc(-c2ccccc2)c(CSC2CCOC2=O)s1)c1c(Cl)cc(-n2ncc(=O)[nH]c2=O)cc1Cl (centres unmarked) [Compound 116]
190	CC(C)(c1nc(-c2ccccc2)c(CCC(=O)OC2CCOC2=O)s1)c1c(Cl)cc(-n2ncc(=O)[nH]c2=O)cc1Cl (centres unmarked) [Compound 81]
174	Cc1nc(C(C)(C)c2c(Cl)cc(-n3ncc(=O)[nH]c3=O)cc2Cl)sc1C(=O)c1ccccc1 [Compound 107]
149	Cc1oc(=O)oc1COC(=O)Cc1sc(C(C)(C)c2c(Cl)cc(-n3ncc(=O)[nH]c3=O)cc2Cl)nc1-c1ccccc1 [Compound 72]
172	C=CCOC(=O)c1sc(C(C)(C)c2c(Cl)cc(-n3ncc(=O)[nH]c3=O)cc2Cl)nc1-c1ccccc1 [Compound 87]
212	CC(=O)c1sc(C(C)(C)c2c(Cl)cc(-n3ncc(=O)[nH]c3=O)cc2Cl)nc1-c1ccccc1 [Compound 105]
180	CC(C)(c1nc(-c2ccccc2)c(C(=O)OCC(F)(F)F)s1)c1c(Cl)cc(-n2ncc(=O)[nH]c2=O)cc1Cl [Compound 78]
112	CON(C)C(=O)c1sc(C(C)(C)c2c(Cl)cc(-n3ncc(=O)[nH]c3=O)cc2Cl)nc1-c1ccccc1 [Compound 89]
72	CC(C)(c1nc(-c2ccccc2)c(CC(=O)OC2CCOC2=O)s1)c1c(Cl)cc(-n2ncc(=O)[nH]c2=O)cc1Cl (centres unmarked) [Compound 1]
155	CCOC(=O)CCc1sc(C(C)(C)c2c(Cl)cc(-n3ncc(=O)[nH]c3=O)cc2Cl)nc1-c1ccccc1 [Compound 80]
151	COCCOCCOC(=O)c1sc(C(C)(C)c2c(Cl)cc(-n3ncc(=O)[nH]c3=O)cc2Cl)nc1-c1ccccc1 [Compound 82]
146	CCCC(=O)OCOC(=O)c1sc(C(C)(C)c2c(Cl)cc(-n3ncc(=O)[nH]c3=O)cc2Cl)nc1-c1ccccc1 [Compound 108]
100	COC(=O)C(CCCO)OC(=O)c1sc(C(C)(C)c2c(Cl)cc(-n3ncc(=O)[nH]c3=O)cc2Cl)nc1-c1ccccc1 (centres unmarked) [Compound 121]
154	C[S+]([O-])CSC(=O)Cc1sc(C(C)(C)c2c(Cl)cc(-n3ncc(=O)[nH]c3=O)cc2Cl)nc1-c1ccccc1 (centres unmarked) [Compound 104]
